# Patent EP0072987A1 (priority 1981, dated 1983)
# Values joined by “and” are separate entries in the source; they are usually repeats but may differ in a detail not shown here. Equal entries are not always repeated.
# Tested on: Tumorart PS 2684
# Set-up: species or system Mäusen
# Details: in vivo
smiles,measurement,value
"O=P1(N(CC2CO2)CC2CO2)OCCCN1CC1CO1 (centres unmarked) [Beispiel 1, 2H-1,3,2-Oxazaphosphorin, 2-(bis-glycidyl)aminotetrahydro-2-oxid-3-glycidyl-]",T/C-Wert,158 and 132
"CN(CC1CO1)P1(=O)OCCCN1CC(Cl)CO (centres unmarked) [Beispiel 2, 2H-1,3,2-Oxazaphosphorin, 2-(glycidyl-methyl)amino-2-oxid-3-(3-hydroxy-2-chloro)-propyl- . tetrahvdro -]",T/C-Wert,158 and 134
